Source: article PMC8566257 (Plant Physiology, 2021)

How the values were obtained:
Experiment in all cases: pull-down of COI1-flag on MBP-JAZ, immunoblot
Format in all cases: binding
Details in all cases: 0.5 μM COR; inducer of complex (agonist)
[1] = target: T1, AtCOI1-flag/AtJAZ1-MBP with ASK1 (Arabidopsis thaliana, UniProt O04197+Q9LMA8)
T1 sequence (O04197 1-592): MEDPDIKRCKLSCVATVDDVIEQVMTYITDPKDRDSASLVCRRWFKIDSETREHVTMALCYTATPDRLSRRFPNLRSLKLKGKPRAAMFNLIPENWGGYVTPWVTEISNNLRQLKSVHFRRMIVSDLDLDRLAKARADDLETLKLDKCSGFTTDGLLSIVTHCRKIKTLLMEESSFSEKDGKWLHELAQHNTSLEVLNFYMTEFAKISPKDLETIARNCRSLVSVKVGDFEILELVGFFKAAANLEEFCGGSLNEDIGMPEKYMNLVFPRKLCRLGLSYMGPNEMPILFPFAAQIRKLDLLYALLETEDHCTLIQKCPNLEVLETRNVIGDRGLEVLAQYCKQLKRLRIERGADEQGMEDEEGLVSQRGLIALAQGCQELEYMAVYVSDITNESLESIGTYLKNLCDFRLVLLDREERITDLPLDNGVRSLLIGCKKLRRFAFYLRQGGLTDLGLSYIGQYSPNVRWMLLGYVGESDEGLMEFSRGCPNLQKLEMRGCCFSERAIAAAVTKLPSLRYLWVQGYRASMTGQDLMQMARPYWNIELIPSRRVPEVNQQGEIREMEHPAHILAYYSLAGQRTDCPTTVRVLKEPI
T1 sequence (Q9LMA8 1-253): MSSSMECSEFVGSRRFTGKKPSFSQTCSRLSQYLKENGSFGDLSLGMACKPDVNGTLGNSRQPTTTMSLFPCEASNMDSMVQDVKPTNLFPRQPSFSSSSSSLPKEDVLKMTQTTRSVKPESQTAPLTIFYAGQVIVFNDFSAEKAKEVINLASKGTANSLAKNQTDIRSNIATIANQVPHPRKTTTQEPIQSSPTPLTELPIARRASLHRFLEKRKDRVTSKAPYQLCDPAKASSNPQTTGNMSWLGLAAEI
T1 sequence (Q39255 1-160 partner): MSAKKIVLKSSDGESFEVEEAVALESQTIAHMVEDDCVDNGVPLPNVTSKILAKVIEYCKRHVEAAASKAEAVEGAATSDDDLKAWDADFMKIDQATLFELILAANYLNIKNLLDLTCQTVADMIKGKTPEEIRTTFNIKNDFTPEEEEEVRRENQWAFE

[2] = target: T2, AtCOI1-flag/AtJAZ9-MBP with ASK1 (Arabidopsis thaliana, UniProt O04197+Q8W4J8)
T2 sequence (O04197 1-592): T1 sequence (O04197 1-592)
T2 sequence (Q8W4J8 1-267): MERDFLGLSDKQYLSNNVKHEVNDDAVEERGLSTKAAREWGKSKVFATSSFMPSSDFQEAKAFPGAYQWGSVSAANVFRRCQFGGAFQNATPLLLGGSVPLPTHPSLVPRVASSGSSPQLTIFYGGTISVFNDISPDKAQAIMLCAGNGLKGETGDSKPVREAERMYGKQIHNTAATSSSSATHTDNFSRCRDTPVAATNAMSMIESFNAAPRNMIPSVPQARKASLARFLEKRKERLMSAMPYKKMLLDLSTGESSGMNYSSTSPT
T2 sequence (Q39255 1-160 partner): T1 sequence (Q39255 1-160 partner)

[3] = target: T3, AtCOI1-flag/AtJAZ3-MBP with ASK1 (Arabidopsis thaliana, UniProt O04197+Q9LVI4)
T3 sequence (O04197 1-592): T1 sequence (O04197 1-592)
T3 sequence (Q9LVI4 1-352): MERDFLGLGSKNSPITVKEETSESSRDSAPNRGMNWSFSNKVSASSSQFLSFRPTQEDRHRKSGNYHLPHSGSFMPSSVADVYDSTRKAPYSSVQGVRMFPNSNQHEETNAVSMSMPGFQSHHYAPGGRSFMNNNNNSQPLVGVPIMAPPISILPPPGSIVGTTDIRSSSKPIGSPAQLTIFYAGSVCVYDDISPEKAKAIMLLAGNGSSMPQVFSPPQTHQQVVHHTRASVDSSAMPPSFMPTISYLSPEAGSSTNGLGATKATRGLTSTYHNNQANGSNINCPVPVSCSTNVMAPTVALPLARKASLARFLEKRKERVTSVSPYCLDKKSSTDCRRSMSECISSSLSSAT
T3 sequence (Q39255 1-160 partner): T1 sequence (Q39255 1-160 partner)

[4] = target: T4, AtCOI1-flag/AtJAZ2-MBP with ASK1 (Arabidopsis thaliana, UniProt O04197+Q9S7M2)
T4 sequence (O04197 1-592): T1 sequence (O04197 1-592)
T4 sequence (Q9S7M2 1-249): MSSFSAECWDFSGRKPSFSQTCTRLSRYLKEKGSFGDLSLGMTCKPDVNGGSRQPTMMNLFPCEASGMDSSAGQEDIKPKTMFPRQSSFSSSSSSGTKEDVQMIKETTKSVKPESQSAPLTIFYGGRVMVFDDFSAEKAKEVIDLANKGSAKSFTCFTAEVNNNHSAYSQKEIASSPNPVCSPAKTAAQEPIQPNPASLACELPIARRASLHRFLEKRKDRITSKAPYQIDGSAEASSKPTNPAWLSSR
T4 sequence (Q39255 1-160 partner): T1 sequence (Q39255 1-160 partner)

## CC[C@H]1C=C(C(=O)N[C@@]2(C(=O)O)C[C@@H]2CC)[C@H]2CCC(=O)[C@H]2C1 [COR]
[1]
  pull-down of COI1-flag on MBP-JAZ, immunoblot: COR promotes the interaction between the purified COI1 and several recombinant JAZ-MBP proteins
[2]
  pull-down of COI1-flag on MBP-JAZ, immunoblot: COR promotes the interaction between the purified COI1 and several recombinant JAZ-MBP proteins
[3]
  pull-down of COI1-flag on MBP-JAZ, immunoblot: COR promotes the interaction between the purified COI1 and several recombinant JAZ-MBP proteins
[4]
  pull-down of COI1-flag on MBP-JAZ, immunoblot: COR promotes the interaction between the purified COI1 and several recombinant JAZ-MBP proteins
